Data published in ChEMBL document CHEMBL1147250, “Enhancement of the antiplasmodial activity of quassin by transformation into a gamma-lactone” (J Nat Prod, 2003).

Experiments:
Plasmodium falciparum [1] = assay: Antiplasmodial activity against chloroquine-resistant Plasmodium falciparum K1 infected erythrocytes by [3H]hypoxanthine uptake; assay type: functional, organism-based
[2] = Selectivity index, ratio of IC50 for human KB cells to IC50 for Plasmodium falciparum K1; assay type: toxicity, cell-based; conditions: KB cells (cytotoxicity) versus Plasmodium falciparum K1, read-out: Selectivity Index
Plasmodium falciparum [3] = assay: Antiplasmodial activity against Plasmodium falciparum K1

Compound `COC1=C[C@@H](C)[C@@H]2C[C@H]3OC(=O)[C@H](O)[C@H]4C(C)=C(OC)C(=O)[C@H]([C@@]2(C)C1=O)[C@]43C` has an IC50 (Plasmodium falciparum [1]) greater than 1000 µM, a selectivity ratio [2] greater than 1.1 and an IC50 (Plasmodium falciparum [3]) of 930 µM.

`COC1=C[C@@H](C)[C@@H]2C[C@H]3OC(=O)C[C@H]4C(C)=C(OC)C(=O)[C@H]([C@@]2(C)C1=O)[C@@]34C` [QUASSIN] showed an IC50 (Plasmodium falciparum [1]) greater than 1000 µM, a selectivity ratio [2] greater than 1 and an IC50 (Plasmodium falciparum [3]) of 911 µM.

With `COC1=C[C@@H](C)[C@@H]2C[C@H]3OC(OC4C[C@H]5C(C)=C(OC)C(=O)[C@@H]6[C@@]7(C)C(=O)C(OC)=C[C@@H](C)[C@@H]7C[C@@H](O4)[C@]65C)C[C@H]4C(C)=C(OC)C(=O)[C@H]([C@@]2(C)C1=O)[C@@]34C` (some centres not stated) [NEOQUASSIN ETHER] the IC50 (Plasmodium falciparum [1]) was 149 µM, the selectivity ratio [2] was 15.3 and the IC50 (Plasmodium falciparum [3]) was 9.7 µM.

`COC1=C[C@@H](C)[C@@H]2C[C@H]3OC(=O)[C@H]4C(C)=C(OC)C(=O)[C@H]([C@@]2(C)C1=O)[C@]43C` [QUASSILACTONE] gave an IC50 (Plasmodium falciparum [1]) of 406 µM, a selectivity ratio [2] of 17.7 and an IC50 (Plasmodium falciparum [3]) of 23 µM.

With `COC1=C[C@@H](C)[C@@H]2C[C@H]3O[C@@H](O)[C@H]4C(C)=C(OC)C(=O)[C@H]([C@@]2(C)C1=O)[C@]43C` [QUASSILACTOL] the IC50 (Plasmodium falciparum [1]) was 576 µM, the selectivity ratio [2] was 8.9 and the IC50 (Plasmodium falciparum [3]) was 65 µM.

`COC1=C[C@@H](C)[C@@H]2C[C@H]3OC=C[C@H]4C(C)=C(OC)C(=O)[C@H]([C@@]2(C)C1=O)[C@@]34C` [ANHYDROQUASSIN] showed an IC50 (Plasmodium falciparum [1]) greater than 1000 µM, a selectivity ratio [2] greater than 1 and an IC50 (Plasmodium falciparum [3]) of 809 µM.

Compound `COC1=C[C@@H](C)[C@@H]2C[C@H]3OC(OC(=O)c4cccc(Cl)c4)[C@H](O)[C@H]4C(C)=C(OC)C(=O)[C@H]([C@@]2(C)C1=O)[C@]43C` (some centres not stated) has an IC50 (Plasmodium falciparum [1]) of 232 µM, a selectivity ratio [2] of 112 and an IC50 (Plasmodium falciparum [3]) of 1.8 µM.

With `COC1=C[C@@H](C)[C@@H]2C[C@H]3OC(O)[C@H](O)[C@H]4C(C)=C(OC)C(=O)[C@H]([C@@]2(C)C1=O)[C@]43C` (some centres not stated) [HYDROXYNEOQUASSINS] the IC50 (Plasmodium falciparum [3]) was 68 µM.

Work on `CCN(CC)CCCC(C)Nc1ccnc2cc(Cl)ccc12` (configuration not stated) [CHLOROQUINE PHOSPHATE] yielded an IC50 (Plasmodium falciparum [3]) of 0.6 µM.

With `CC[C@H]1CN2CCc3cc(OC)c(OC)cc3[C@@H]2C[C@@H]1C[C@H]1NCCc2cc(OC)c(OC)cc21` the IC50 (Plasmodium falciparum [1]) was 0.96 µM.

For `COC1=C[C@@H](C)[C@@H]2C[C@H]3OC(O)C[C@H]4C(C)=C(OC)C(=O)[C@H]([C@@]2(C)C1=O)[C@@]34C` (some centres not stated) [NEOQUASSIN], the IC50 (Plasmodium falciparum [1]) was 615 µM, the selectivity ratio [2] was 1.3 and the IC50 (Plasmodium falciparum [3]) was 473 µM.
